Measurements as given in US12622975B2, “Peptide-conjugated prodrugs” (priority 2019, dated 2026).
In brackets after ≈: the same amount, converted by molar mass. Several values for one entry are separate records, joined by “and”; a condition that tells them apart may be missing. Equal values may be shown once. Read-outs that look alike come from different tables or passages of the source. Numbered stars: 1 amine (or outer) side, 2 acyl side, 3 side chain; on linkers, the order of the positions; unused ones are H or OH. Square brackets hold non-standard residues; d marks the D form. Peptide text beside a SMILES is read from it. * marks the point of attachment. X1 = O=C(CCC(=O)[*:2])OCC(N[*:1])C(O)c1ccc([N+](=O)[O-])cc1; Dichloroacetyl = O=C(C(Cl)Cl)*

Legend:
[1] = test system: wild type E. coli strain (K-12); experiment: Bacteria culture and inhibitory activity assay (MIC); assay type: cell-based; settings: wild type E. coli (K-12); for MIC: Escherichia coli
Procedure: Bacteria culture and inhibitory activity assay: Single esterase (BioH, YjfP, FrsA, YbfF, YfbB, YqiA, YeiG, or and YpfH) deletion mutants were purchased from Dharmacon Horizon Discovery (Cambridge, United Kingdom). […] Compounds were added at different concentrations.
Compounds were added at different concentrations.

HS-5 cells = experiment: Cell viability assay (MTT), HS-5; assay type: cell-based, human; settings: 24 hours; for cytotoxicity of control compounds against HS-5 cells: around MIC values (0.5 μM)
[2] = Stability in human serum (LC-MS); assay type: in vitro ADME; settings: human serum, 200 μM, 37° C.

Row | SMILES | MIC (μM) [1] [µM] | further results
1 | CC(NC(=O)C(C)NC(=O)C(C)NC(=O)CCC(=O)OCC(NC(=O)C(Cl)Cl)C(O)c1ccc([N+](=O)[O-])cc1)C(=O)O (centres unmarked) [Compound 1j] | 100 (≈ 63.6 µg/mL) | –
2 | CC(NC(=O)C(C)NC(=O)CCC(=O)OCC(NC(=O)C(Cl)Cl)C(O)c1ccc([N+](=O)[O-])cc1)C(=O)O (centres unmarked) [Compound 1h] | 100 (≈ 56.5 µg/mL) | –
3 | CC(NC(=O)CNC(=O)CCC(=O)OCC(NC(=O)C(Cl)Cl)C(O)c1ccc([N+](=O)[O-])cc1)C(=O)O (centres unmarked) [Compound 1b] | 20 (≈ 11 µg/mL) | –
4 | O=C(O)c1cn(C2CC2)c2cc(N3CCNCC3)c(F)cc2c1=O [ciprofloxacin] | – | cytotoxicity of control compounds against HS-5 cells (HS-5 cells): relatively low cytotoxicity
5 | O=C(O)CCC(NC(=O)C(CCC(=O)O)NC(=O)CCC(=O)OCC(NC(=O)C(Cl)Cl)C(O)c1ccc([N+](=O)[O-])cc1)C(=O)O (centres unmarked) [Compound 2g] | >200 | –
6 | O=C(O)CNC(=O)C(Cc1ccccc1)NC(=O)CNC(=O)CCC(=O)OCC(NC(=O)C(Cl)Cl)C(O)c1ccc([N+](=O)[O-])cc1 (centres unmarked) [Compound 1m] | 20 (≈ 13.7 µg/mL) | –
7 | NCCCCC(NC(=O)CNC(=O)CCC(=O)OCC(NC(=O)C(Cl)Cl)C(O)c1ccc([N+](=O)[O-])cc1)C(=O)O (centres unmarked) [Compound 2f] | 20 (≈ 12.2 µg/mL) | Compounds remaining (%) 0 h [2]: 100%; Compounds remaining (%) 2 h [2]: 0%; Compounds remaining (%) 24 h [2]: 0%
8 | O=C(O)CC(NC(=O)C(CC(=O)O)NC(=O)CCC(=O)OCC(NC(=O)C(Cl)Cl)C(O)c1ccc([N+](=O)[O-])cc1)C(=O)O (centres unmarked) [Compound 2h] | >200 | –
9 | NCCCCC(NC(=O)C(CCCCN)NC(=O)C(Cc1ccccc1)NC(=O)C(Cc1ccccc1)NC(=O)CCC(=O)OCC(NC(=O)C(Cl)Cl)C(O)c1ccc([N+](=O)[O-])cc1)C(=O)O (centres unmarked) [Compound 2e] (Dichloroacetyl-[X1]FFKK-OH; configuration not given here) | 200 (≈ 195 µg/mL) | –
10 | O=C(O)CNC(=O)CNC(=O)CNC(=O)CNC(=O)CNC(=O)CCC(=O)OCC(NC(=O)C(Cl)Cl)C(O)c1ccc([N+](=O)[O-])cc1 (centres unmarked) [Compound 1q] (Dichloroacetyl-[X1]GGGGG-OH) | 40 (≈ 28.3 µg/mL) | –
11 | O=C(CCC(=O)OCC(NC(=O)C(Cl)Cl)C(O)c1ccc([N+](=O)[O-])cc1)NC(Cc1ccccc1)C(=O)NC(Cc1ccccc1)C(=O)O (centres unmarked) [Compound 3a] | 100 (≈ 71.8 µg/mL) | –
12 | O=C(O)CNC(=O)CNC(=O)CNC(=O)CNC(=O)CCC(=O)OCC(NC(=O)C(Cl)Cl)C(O)c1ccc([N+](=O)[O-])cc1 (centres unmarked) [Compound 1f] (Dichloroacetyl-[X1]GGGG-OH) | 20 (≈ 13 µg/mL) | –
13 | O=C(O)CC(NC(=O)C(CC(=O)O)NC(=O)CCC(=O)OCC(NC(=O)C(Cl)Cl)C(O)c1ccc([N+](=O)[O-])cc1)C(=O)O (centres unmarked) [Compound 2i] | 200 (≈ 131 µg/mL) | –
14 | CC(NC(=O)C(C)NC(=O)CCC(=O)OCC(NC(=O)C(Cl)Cl)C(O)c1ccc([N+](=O)[O-])cc1)C(=O)O (centres unmarked) [Compound 1g] | 80 (≈ 45.2 µg/mL) | –
15 | O=C(CCC(=O)OCC(NC(=O)C(Cl)Cl)C(O)c1ccc([N+](=O)[O-])cc1)NCC(=O)NCC(=O)NC(Cc1ccccc1)C(=O)NC(Cc1ccccc1)C(=O)O (centres unmarked) [Compound 1o] (Dichloroacetyl-[X1]GGFF-OH; configuration not given here) | 20 (≈ 16.6 µg/mL) | Compounds remaining (%) 0 h [2]: 100%; Compounds remaining (%) 2 h [2]: 7.2%; Compounds remaining (%) 24 h [2]: 0%
16 | N=C(N)NCCCC(NC(=O)C(CCCNC(=N)N)NC(=O)C(Cc1ccccc1)NC(=O)C(Cc1ccccc1)NC(=O)CCC(=O)OCC(NC(=O)C(Cl)Cl)C(O)c1ccc([N+](=O)[O-])cc1)C(=O)O (centres unmarked) [Compound 2d] (Dichloroacetyl-[X1]FFRR-OH; configuration not given here) | 200 (≈ 206 µg/mL) | –
17 | O=C(N[C@H](CO)[C@H](O)c1ccc([N+](=O)[O-])cc1)C(Cl)Cl [CL, chloramphenicol, reference compound] | – | MIC ([1]; read-out: MIC): 20 µM; MIC ([1]; read-out: MIC (μg/mL)): 6.5 µg/mL; cytotoxicity / cell viability of HS-5 cells (HS-5 cells; 20 μM): reduced the viability
18 | CC(NC(=O)C(C)NC(=O)C(C)NC(=O)CCC(=O)OCC(NC(=O)C(Cl)Cl)C(O)c1ccc([N+](=O)[O-])cc1)C(=O)O (centres unmarked) [Compound 1i] | 80 (≈ 50.9 µg/mL) | –
19 | N=C(N)NCCCC(NC(=O)C(CCCNC(=N)N)NC(=O)CCC(=O)OCC(NC(=O)C(Cl)Cl)C(O)c1ccc([N+](=O)[O-])cc1)C(=O)O (centres unmarked) [Compound 2a] | 200 (≈ 147 µg/mL) | –
20 | CC(C)CC(NC(=O)CNC(=O)CCC(=O)OCC(NC(=O)C(Cl)Cl)C(O)c1ccc([N+](=O)[O-])cc1)C(=O)O (centres unmarked) [Compound 1a] | 20 (≈ 11.9 µg/mL) | –
21 | O=C(O)CC(NC(=O)CNC(=O)CCC(=O)OCC(NC(=O)C(Cl)Cl)C(O)c1ccc([N+](=O)[O-])cc1)C(=O)O (centres unmarked) [Compound 2j] | 20 (≈ 11.9 µg/mL) | –
22 | O=C(CCC(=O)OCC(NC(=O)C(Cl)Cl)C(O)c1ccc([N+](=O)[O-])cc1)NCC(=O)NCC(=O)NC(Cc1ccccc1)C(=O)O (centres unmarked) [Compound 1k] | 20 (≈ 13.7 µg/mL) | Compounds remaining (%) 0 h [2]: 100%; Compounds remaining (%) 2 h [2]: 0%; Compounds remaining (%) 24 h [2]: 0%
23 | O=C(O)CNC(=O)CNC(=O)C(Cc1ccccc1)NC(=O)CCC(=O)OCC(NC(=O)C(Cl)Cl)C(O)c1ccc([N+](=O)[O-])cc1 (centres unmarked) [Compound 1n] | 80 (≈ 54.8 µg/mL) | –
24 | O=C(O)CNC(=O)CCC(=O)OCC(NC(=O)C(Cl)Cl)C(O)c1ccc([N+](=O)[O-])cc1 (centres unmarked) [CLsuG] | >200 | MIC (μg/mL) [1]: > 95.8 µg/mL and 95.8 µg/mL
25 | CC[C@H]1OC(=O)[C@H](C)C(=O)[C@H](C)[C@@H](O[C@@H]2O[C@H](C)C[C@H](N(C)C)[C@H]2O)[C@](C)(OC)C[C@@H](C)C(=O)[C@H](C)[C@H]2N(CCCCn3cnc(-c4cccnc4)c3)C(=O)O[C@]12C [telithromycin] | – | cytotoxicity of control compounds against HS-5 cells (HS-5 cells): relatively low cytotoxicity
26 | CNC(=O)CNC(=O)CNC(=O)CCC(=O)OCC(NC(=O)C(Cl)Cl)C(O)c1ccc([N+](=O)[O-])cc1 (centres unmarked) [Compound 1e] | 20 (≈ 11 µg/mL) | –
